Reference: patent US6737383B1, “Herbicidal oxadiazolidines” (priority 1999, dated 2004)

How the values were obtained:
common pursiane = assay: Test D common purslane; assay type: in vivo, Portulaca oleracea; settings: Preemergence, 0 to 100 scale
Outline: (§1)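 Each weed species is planted in its own pot or compartment; preemergence doses go on the sandy loam surface within a day. The formulation is a surfactant-containing, non-phytotoxic solvent blend. Ratings come from visual comparison with untreated controls 14 to 21 days later, where 100 means complete control.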

common ragweed = assay: Test D common ragweed; assay type: in vivo, Ambrosia elatior; settings: Preemergence, 0 to 100 scale
Outline: as §1

common groundsel = assay: Test D common groundsel; assay type: in vivo, Senecio vulgaris; settings: Preemergence, 0 to 100 scale
Outline: as §1

dallisgrass = assay: Test D dallisgrass; assay type: in vivo, Paspalum dilatatum; settings: Preemergence, 0 to 100 scale
Outline: as §1

goosegrass = assay: Test D goosegrass; assay type: in vivo, Eleusine indica; settings: Preemergence, 0 to 100 scale
Outline: as §1

guineagrass = assay: Test D guineagrass; assay type: in vivo, Panicum maximum; settings: Preemergence, 0 to 100 scale
Outline: as §1

itchgrass = assay: Test D itchgrass; assay type: in vivo, Rottboellia exaltata; settings: Preemergence, 0 to 100 scale
Outline: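 Scoring used a 0–100 visual injury scale, with 0 meaning no effect and 100 complete control, assessed 14–21 days after application alongside untreated pots. Preemergence treatments went onto sandy loam surfaces of separately potted seeds within a day of sowing.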

Johnson grass = assay: Test D Johnson grass; assay type: in vivo, Sorghum halepense; settings: Preemergence, 0 to 100 scale
Outline: as §1

large crabgrass = assay: Test D large crabgrass; assay type: in vivo, Digitaria sanguinalis; settings: Preemergence, 0 to 100 scale
Outline: as §1

pitted morningglory = assay: Test D pitted morningglory; assay type: in vivo, Ipomoea lacunosa; settings: Preemergence, 0 to 100 scale
Outline: as §1

purple nutsedge = assay: Test D purple nutsedge; assay type: in vivo, Cyperus rotundus; settings: Preemergence, 0 to 100 scale
Outline: as §1

sandbur = assay: Test D sandbur; assay type: in vivo, Cenchrus echinatus; settings: Preemergence, 0 to 100 scale
Outline: as §1

Spanishneedles = assay: Test D Spanishneedles; assay type: in vivo, Bidens bipinnata; settings: Preemergence, 0 to 100 scale
Outline: as §1

surinam grass = assay: Test D surinam grass; assay type: in vivo, Brachiaria decumbens; settings: Preemergence, 0 to 100 scale
Outline: as §1

tall mallow = assay: Test D tall mallow; assay type: in vivo, Malva sylvestris; settings: Preemergence, 0 to 100 scale
Outline: as §1

Green foxtail [1] = assay: Test D green foxtail; assay type: in vivo; settings: Preemergence, 0 to 100 scale
Outline: as §1

Green foxtail [2] = assay: Test D green foxtail; assay type: in vivo
Outline: as §1

[3] = Rate 16 g/ha, 0 no injury, 100 complete control
[4] = Rate 32 g/ha, 0 no injury, 100 complete control
[5] = Rate 64 g/ha, 0 no injury, 100 complete control
[6] = Rate 125 g/ha, 0 no injury, 100 complete control
[7] = Rate 64 g/ha, Preemergence; 0 to 100 scale, 0 no injury, 100 complete control
[8] = Rate 125 g/ha, Preemergence; 0 to 100 scale, 0 no injury, 100 complete control

Structure (SMILES): CC(C)N(C(=O)n1oc(=O)n(N(C)C)c1=O)c1ccc(F)cc1 [Compound 170]
- Plant response rating, C. purslane (common pursiane; [3]): 0
- Plant response rating, C. purslane (common pursiane; [4]): 0
- Plant response rating, C. purslane (common pursiane; [5]): 0
- Plant response rating, C. purslane (common pursiane; [6]): 0
- Plant response rating, C. purslane (common pursiane; Rate 250 g/ha): 0
- Plant response rating, C. purslane (common pursiane; Rate 500 g/ha): 10
- Plant response rating, C. ragweed (common ragweed; [3]): 0
- Plant response rating, C. ragweed (common ragweed; [4]): 0
- Plant response rating, C. ragweed (common ragweed; [5]): 0
- Plant response rating, C. ragweed (common ragweed; [6]): 0
- Plant response rating, C. ragweed (common ragweed; Rate 250 g/ha): 40
- Plant response rating, C. ragweed (common ragweed; Rate 500 g/ha): 45
- Plant response rating, Com. groundsel (common groundsel; [3]): 0
- Plant response rating, Com. groundsel (common groundsel; [4]): 0
- Plant response rating, Com. groundsel (common groundsel; [5]): 0
- Plant response rating, Com. groundsel (common groundsel; [6]): 45
- Plant response rating, Com. groundsel (common groundsel; Rate 250 g/ha): 45
- Plant response rating, Com. groundsel (common groundsel; Rate 500 g/ha): 100
- Plant response rating, Dallisgrass (dallisgrass; [3]): 0
- Plant response rating, Dallisgrass (dallisgrass; [4]): 0
- Plant response rating, Dallisgrass (dallisgrass; [5]): 85
- Plant response rating, Dallisgrass (dallisgrass; [6]): 85
- Plant response rating, Dallisgrass (dallisgrass; Rate 250 g/ha): 100
- Plant response rating, Dallisgrass (dallisgrass; Rate 500 g/ha): 100
- Plant response rating, Goosegrass (goosegrass; [3]): 50
- Plant response rating, Goosegrass (goosegrass; [4]): 65
- Plant response rating, Goosegrass (goosegrass; [5]): 75
- Plant response rating, Goosegrass (goosegrass; [6]): 75
- Plant response rating, Goosegrass (goosegrass; Rate 250 g/ha): 98
- Plant response rating, Goosegrass (goosegrass; Rate 500 g/ha): 100
- Plant response rating, Guineagrass (guineagrass; [3]): 0
- Plant response rating, Guineagrass (guineagrass; [4]): 85
- Plant response rating, Guineagrass (guineagrass; [5]): 98
- Plant response rating, Guineagrass (guineagrass; [6]): 100
- Plant response rating, Guineagrass (guineagrass; Rate 250 g/ha): 100
- Plant response rating, Guineagrass (guineagrass; Rate 500 g/ha): 100
- Plant response rating, Itchgrass (itchgrass; [3]): 0
- Plant response rating, Itchgrass (itchgrass; [4]): 0
- Plant response rating, Itchgrass (itchgrass; [5]): 0
- Plant response rating, Itchgrass (itchgrass; [6]): 30
- Plant response rating, Itchgrass (itchgrass; Rate 250 g/ha): 45
- Plant response rating, Itchgrass (itchgrass; Rate 500 g/ha): 50
- Plant response rating, Johnsongrass (Johnson grass; [3]): 0
- Plant response rating, Johnsongrass (Johnson grass; [4]): 0
- Plant response rating, Johnsongrass (Johnson grass; [5]): 0
- Plant response rating, Johnsongrass (Johnson grass; [6]): 75
- Plant response rating, Johnsongrass (Johnson grass; Rate 250 g/ha): 100
- Plant response rating, Johnsongrass (Johnson grass; Rate 500 g/ha): 95
- Plant response rating, Large crabgrass (large crabgrass; [3]): 30
- Plant response rating, Large crabgrass (large crabgrass; [4]): 85
- Plant response rating, Large crabgrass (large crabgrass; [5]): 100
- Plant response rating, Large crabgrass (large crabgrass; [6]): 100
- Plant response rating, Large crabgrass (large crabgrass; Rate 250 g/ha): 100
- Plant response rating, Large crabgrass (large crabgrass; Rate 500 g/ha): 100
- Plant response rating, P. morninglory (pitted morningglory; [3]): 20
- Plant response rating, P. morninglory (pitted morningglory; [4]): 20
- Plant response rating, P. morninglory (pitted morningglory; [5]): 20
- Plant response rating, P. morninglory (pitted morningglory; [6]): 40
- Plant response rating, P. morninglory (pitted morningglory; Rate 250 g/ha): 65
- Plant response rating, P. morninglory (pitted morningglory; Rate 500 g/ha): 85
- Plant response rating, Purple nutsedge (purple nutsedge; [3]): 0
- Plant response rating, Purple nutsedge (purple nutsedge; [4]): 0
- Purple nutsedge plant response rating (purple nutsedge; [5]): 0
- Purple nutsedge plant response rating (purple nutsedge; [6]): 0
- Plant response rating, Purple nutsedge (purple nutsedge; Rate 250 g/ha): 65
- Plant response rating, Purple nutsedge (purple nutsedge; Rate 500 g/ha): 65
- Plant response rating, Sandbur (sandbur; [3]): 0
- Plant response rating, Sandbur (sandbur; [4]): 0
- Sandbur plant response rating (sandbur; [5]): 40
- Sandbur plant response rating (sandbur; [6]): 40
- Plant response rating, Sandbur (sandbur; Rate 250 g/ha): 40
- Plant response rating, Sandbur (sandbur; Rate 500 g/ha): 98
- Plant response rating, Spanishneedles (Spanishneedles; [3]): 0
- Plant response rating, Spanishneedles (Spanishneedles; [4]): 0
- Spanishneedles plant response rating (Spanishneedles; [5]): 0
- Spanishneedles plant response rating (Spanishneedles; [6]): 0
- Plant response rating, Spanishneedles (Spanishneedles; Rate 250 g/ha): 40
- Plant response rating, Spanishneedles (Spanishneedles; Rate 500 g/ha): 85
- Plant response rating, Surinam grass (surinam grass; [3]): 0
- Plant response rating, Surinam grass (surinam grass; [4]): 0
- Surinam grass plant response rating (surinam grass; [5]): 30
- Surinam grass plant response rating (surinam grass; [6]): 75
- Plant response rating, Surinam grass (surinam grass; Rate 250 g/ha): 100
- Plant response rating, Surinam grass (surinam grass; Rate 500 g/ha): 100
- Plant response rating, Tall Mallow (tall mallow; [3]): 30
- Plant response rating, Tall Mallow (tall mallow; [4]): 30
- Tall Mallow plant response rating (tall mallow; [5]): 30
- Tall Mallow plant response rating (tall mallow; [6]): 30
- Plant response rating, Tall Mallow (tall mallow; Rate 250 g/ha): 40
- Plant response rating, Tall Mallow (tall mallow; Rate 500 g/ha): 45
- Plant response rating, Green foxtail (Green foxtail [1]; Rate 250 g/ha): 100
- Plant response rating, Green foxtail (Green foxtail [1]; Rate 500 g/ha): 100
- Plant response rating, Green foxtail (Green foxtail [2]; Preemergence; Rate 16 g/ha; 0 to 100 scale, 0 no injury, 100 complete control): 65
- Plant response rating, Green foxtail (Green foxtail [2]; Preemergence; Rate 32 g/ha; 0 to 100 scale, 0 no injury, 100 complete control): 75
- Plant response rating, Green foxtail (Green foxtail [2]; Rate 16 g/ha; Preemergence; 0 to 100 scale, 0 no injury, 100 complete control): 65
- Plant response rating, Green foxtail (Green foxtail [2]; Rate 32 g/ha; Preemergence; 0 to 100 scale, 0 no injury, 100 complete control): 100
- Green foxtail plant response rating (Green foxtail [2]; [7]): 100
- Plant response rating, Green foxtail (Green foxtail [2]; [7]): 100
- Green foxtail plant response rating (Green foxtail [2]; [8]): 100
- Plant response rating, Green foxtail (Green foxtail [2]; [8]): 100
- Plant response rating, Green foxtail (Green foxtail [2]; Rate 250 g/ha; Preemergence; 0 to 100 scale): 100
- Plant response rating, Green foxtail (Green foxtail [2]; Rate 500 g/ha, Preemergence; 0 to 100 scale): 100
